# pIC50: −log10 of the molar value. Where “and” joins values, the source holds several entries; their conditions need not be identical. Identical values can stand only once.
# System: S. Typhimurium PhoP-regulated promoter GFP reporter, 4 h
# Assay: inhibitors of PhoP regulon expression, primary screen, Salmonella Typhimurium, GFP reporter (AID 1863)
row,Structure (SMILES),pIC50
1,Cc1ccc(C)c(/C=C/C(=O)c2ccccc(=O)c2O)c1,4.05
2,CCn1cc(C(=O)O)c(=O)c2cc(F)c(N3CCN(S(=O)(=O)c4ccc(NC(C)=O)cc4)CC3)cc21,3.87
3,Cc1ccc(-c2c[n+](CC(=O)Nc3nc(-c4ccc(F)cc4)cs3)c3n2CCC3)cc1,4.17
4,COc1cccc(/C=N\NC(=O)Cn2nnc3ccccc32)c1O,4.07
5,Oc1ccc(/C=N/Nc2nccnc2Cl)c(O)c1,4.19
6,CCN1/C(=C/C=C/c2sc3ccccc3[n+]2CC)Sc2ccccc21,4.47
7,O=C(N/N=C/c1cccc([N+](=O)[O-])c1O)c1cccs1,4.61
8,O=c1c2c(-c3ccccc3)csc2nc2c3ccccc3c(NCCN3CCOCC3)nn12,4.27
9,O=C(N/N=C/c1cc(Cl)ccc1O)c1cccnc1,4.31
10,CC(C)CCNCC(O)CON=C1c2ccccc2-c2ccccc21 (stereo unspecified),3.91
11,Cc1cc(C(=O)N/N=C/c2cc(Br)cc([N+](=O)[O-])c2O)c2ccccc2n1,3.93
12,O=C(Nc1ccccc1)Nc1ccc(Cl)c([N+](=O)[O-])c1,4.34
13,O=C(/C=C/c1ccccc1Cl)c1ccccc(=O)c1O,4.40
14,Cc1ccc(-c2csc(NC(=O)C[n+]3cc(-c4ccc(C)cc4)n4c3CCC4)n2)cc1,4.30
15,Nc1nc2ccccc2n1Cc1ccc(Cl)c(Cl)c1,4.08
16,CN(C)CCCNc1cc(C(C)(C)C)nc2c(-c3ccccc3)cnn12,4.17
17,O=[N+]([O-])c1cc(CN2CCOCC2)c2cccnc2c1O,4.35
18,O=C(Nc1ccccc1)Nc1ncc([N+](=O)[O-])s1,4.39
19,CCN(CC)CCOc1ccc2c(c1)C(=NNC(=O)c1ccccn1)c1cc(OCCN(CC)CC)ccc1-2,4.37
20,O=C1c2ccccc2NC(c2ccc(-c3cccc(Cl)c3)o2)N1O (stereo unspecified),3.94
21,CCn1cc(C(=O)O)c(=O)c2cc(F)c(N3CCN(C(=S)NC(=O)c4cccc(F)c4)CC3)cc21,4.74
22,O=C(N/N=C/c1coc2ccc(Cl)cc2c1=O)c1cc(O)cc(O)c1,4.16

row,Structure (SMILES),pIC50
1,Clc1c(OCCCn2ccnc2)ccc2ccccc12,4.03
2,Oc1c(CN2CCOCC2)cc(COCc2ccccc2)c2cccnc12,4.01
3,CCCCCCCCCn1c2c(c(=N)c3c1CCC3)CCC2,4.43
4,CCCCCC(CC(=O)NO)C(=O)NC(C(=O)N1CCCC1CO)C(C)C (stereo unspecified),4.90
5,C(=N\Nc1ccccn1)/c1cccnc1,4.39
6,CCn1cc(C(=O)O)c(=O)c2cc(F)c(N3CCN(C(=S)NC(=O)c4ccc(OC)cc4)CC3)cc21,4.95
7,CC1CCC(C(C)C)C(OC(=O)Cn2c(-c3ccc(Cl)cc3)[n+](C)c3ccccc32)C1 (stereo unspecified),4.08
8,O=C(Cn1nc(CNc2ccc(Cl)cc2)[n+]2c1CCCCC2)c1ccc(Br)cc1,4.04
9,O=C(N/N=C/c1cc(Cl)ccc1O)c1ccncc1,4.42
10,Cc1cc(C)c(NC(=O)c2cn3c4c(c(N5CCN(C)CC5)c(F)cc4c2=O)OCC3C)c(C)c1 (stereo unspecified),4.69
11,CC(C)(C)CC(C)(C)c1ccc(OCCOCC[N+](C)(C)Cc2ccccc2)cc1,4.44
12,Cc1onc(-c2ccccc2)c1C(=O)NC(=S)NNC(=O)c1ccc(O)cc1O,3.96
13,CC(=O)NC(c1ccc(C)cc1)c1cc([N+](=O)[O-])c2cccnc2c1O (stereo unspecified),4.43
14,Cc1cccc(Nc2c3c(nc4ccccc24)CCC3)c1,3.97
15,CCn1cc(C(=O)O)c(=O)c2ccc(C)nc21,4.07
16,CCCCCCCNC(=O)C1(CC2CC(c3cccc(Br)c3)=NO2)CCNCC1 (stereo unspecified),4.34
17,CCOc1ccc(NC(=O)c2ccc(NC(=O)c3cn4c5c(c(N6CCN(C)CC6)c(F)cc5c3=O)OCC4C)cc2)cc1 (stereo unspecified),5.53
18,Oc1ccc(CN2CCCc3ccccc32)c2cccnc12,4.16
19,CS(=O)(=O)c1ccc([C@@H](O)[C@@H](CO)NC(=O)C(Cl)Cl)cc1,4.15
20,COc1cccc(Nc2nc(NCC3CCCO3)c3ccccc3n2)c1 (stereo unspecified),4.09
21,O=C(N/N=C\c1cccc([N+](=O)[O-])c1O)C1COc2ccccc2O1 (stereo unspecified),3.98
22,O=[N+]([O-])c1cc(/C=N/Nc2nc3ccccc3[nH]2)c(O)cc1O,4.61

row,Structure (SMILES),pIC50
1,CCCCCCCCCC[N+](C)(C)CC/C=C1/c2ccccc2Sc2ccc(Cl)cc21,4.73
2,CN1CCN(C(c2ccc(Cl)cc2)c2cc(Cl)c3cccnc3c2O)CC1 (stereo unspecified),4.36
3,CCCCCCCCCCCCCCCC[n+]1cccc(C(=O)N(CC)CC)c1,4.60
4,CCOc1ccc(Nc2c3ccccc3nc3ccccc23)cc1,4.11
5,Cc1sc2ncnc(N/N=C/c3ccccc3O)c2c1C,4.08
6,O=[N+]([O-])c1cc(O)c2ncccc2c1,4.55
7,CCOc1cc(/C=N/N=C(N)N)ccc1OCc1ccc(Cl)cc1,4.34
8,CNc1cc(Cl)c2nonc2c1[N+](=O)[O-],4.43
9,CC1CCCC(C)N1/N=C/c1c[nH]c2ccc(Br)cc12 (stereo unspecified),4.02
10,CC[C@H]1OC(=O)[C@H](C)[C@@H](O[C@H]2C[C@@](C)(OC)[C@@H](O)[C@H](C)O2)[C@H](C)[C@@H](O[C@@H]2O[C@H](C)C[C@H](N(C)C)[C@H]2O)[C@](C)(O)C[C@@H](C)CN(C)[C@H](C)[C@@H](O)[C@]1(C)O,5.63
11,CCN1CCN(C(c2cccnc2)c2cc(Cl)c3cccnc3c2O)CC1 (stereo unspecified),4.10
12,CCn1cc(C(=O)NCCCN(C)C)c(=O)c2cc(F)c(N3CCN(C)CC3)cc21,4.31
13,O=[N+]([O-])c1ccc(O)c2ncccc12,5.46
14,NC1=NC[C@H](Cc2ccc(O)cc2)N1CCC12CC3CC(CC(C3)C1)C2,4.12
15,O=[N+]([O-])c1cc(F)c2cccnc2c1O,4.92
16,CCn1cc(C(=O)O)c(=O)c2cc(F)c(N3CCN(C(=S)Nc4ccccc4OC)CC3)cc21,4.96
17,Cc1ccc(Cn2c(=N)n(CC(=O)c3ccc([N+](=O)[O-])cc3)c3ccccc32)cc1,3.85
18,COc1c(F)c(F)cc2c(=O)c(C(=O)O)cn(C3CC3)c12,4.43
19,C=C1c2cccc(O)c2C(O)=C2C(=O)[C@]3(O)C(O)=C(C(N)=O)C(=O)[C@@H](N(C)C)[C@@H]3[C@@H](O)[C@H]12,5.85
20,CN(C)C1C(=O)C(C(N)=O)=C(O)C2(O)C(=O)C3=C(O)c4c(O)cccc4C(C)(O)C3C(O)C12 (stereo unspecified),5.77
21,NC1CCN(c2nc3c(cc2F)c(=O)c(C(=O)O)cn3-c2ccc(F)cc2F)C1 (stereo unspecified),6.31
22,Cc1ccc(/C=C/C(=O)c2ccccc(=O)c2O)cc1C,4.37

row,Structure (SMILES),pIC50
1,CC(=O)NC(c1cccs1)c1cc([N+](=O)[O-])c2cccnc2c1O (stereo unspecified),4.41
2,c1ccc2c(c1)Sc1ccccc1N2CC1CN2CCC1CC2 (stereo unspecified),3.87
3,COc1ccc(Nc2cc(C)nc(NCc3ccccc3)n2)cc1,4.01
4,CCc1ccc(S(=O)(=O)/N=C2/C=C(Sc3ncn[nH]3)C(=O)c3ccccc32)cc1,4.00
5,CCn1cc(C(=O)O)c(=O)c2cc(F)c(N3CCN(C(=S)NC(=O)c4ccccc4F)CC3)cc21,4.54
6,CCCCCCCCn1c2c(c(=N)c3ccccc31)CCC2,4.32
7,CCn1cc(C(=O)O)c(=O)c2cc(F)c(N3CCN(C)CC3)cc21,6.00
8,CCCCCCNC(=O)c1cn(CC)c2cc(N3CCN(C)CC3)c(F)cc2c1=O,4.64
9,CCCc1cnc(NCCNCC(O)COc2ccc(Cl)c(Cl)c2)nc1 (stereo unspecified),4.27
10,COc1nsnc1NS(=O)(=O)c1ccc(NC(=S)NC(=O)c2cccnc2)cc1,3.94
11,CN(C)S(=O)(=O)c1cccc(NC(=S)N/N=C/c2cc(Br)ccc2O)c1,4.16
12,CCCCCNCC(=O)Nc1cccc(C(=O)Nc2cccc(C(F)(F)F)c2)c1,4.02
13,Nc1[nH]c(=O)ncc1F,4.54
14,NCCc1c(-c2ccccc2)n(-c2ccccc2)c2ccccc12,4.18
15,O=C1C(=O)c2ccccc2-c2ccccc21,4.93
16,CCCCCCCCCCOC(=O)C[N+](C)(C)C/C=C(/C)Cl,4.29
17,CN(C)c1ccc(O)c2c1CC1CC3C(N(C)C)C(=O)C(C(N)=O)=C(O)[C@@]3(O)C(=O)C1=C2O (stereo partly specified),5.03
18,COc1c(N2CCN(C(=S)NC3CC4CCC3C4)C(C)C2)c(F)cc2c(=O)c(C(=O)O)cn(C3CC3)c12 (stereo unspecified),4.65
19,Nc1nc2ccccc2n1CCOc1ccccc1Cl,3.86
20,Cc1ccc(C(C[N+](=O)[O-])c2c(N)n(C)c(=O)n(C)c2=O)cc1 (stereo unspecified),4.21
21,CCOC(=O)C1=Nc2ccccc2C1=[N+]=[N-],4.49
22,CN1CCN(C(c2ccc(C(F)(F)F)cc2)c2cc(Cl)c3cccnc3c2O)CC1 (stereo unspecified),4.47

row,Structure (SMILES),pIC50
1,C/C(=N\Nc1ncnc2sc(C)c(C)c12)c1ccccn1,4.13
2,CSCC[C@H](NC(=O)Nc1ccc(C)cc1)C(=O)O,3.91
3,COc1c(N2CCN(C(=S)NCc3ccccc3)C(C)C2)c(F)cc2c(=O)c(C(=O)O)cn(C3CC3)c12 (stereo unspecified),4.36
4,NC1=NC[C@H](c2ccccc2)N1CCCCC1CCCCC1,4.39
5,Oc1c(Br)cc(Br)cc1C=NCc1ccccc1,3.99
6,C=CCNc1ncnc2c1[nH]c1ccc(Cl)cc12,3.86
7,O=[N+]([O-])c1ccc(CNC2CCCc3ccccc32)cc1 (stereo unspecified),4.09
8,CCCCCCCCCCOC(=O)Cn1c(COc2ccc(OC)cc2)[n+](C)c2ccccc21,4.64 and 4.65
9,CCCCOc1ccc(Br)cc1CSC(=N)N,4.05
10,Nc1ncn(C2O[C@H](CO)[C@@H](O)[C@H]2O)c(=O)n1 (stereo partly specified),4.40
11,Cc1nc(N)c(Cc2ccc(Cl)cc2Cl)c(N)n1,3.98
12,CN1CCN(c2c(F)cc3c(=O)c(C(=O)O)cn4c3c2SCC4)CC1,5.35 and 5.33
13,CO/N=C(/C(=O)N[C@@H]1C(=O)N2C(C(=O)O)=CCS[C@H]12)c1cnc(N)s1,4.80
14,O=C(O)CCN1C(=O)CC(N2C(=O)/C(=C/c3ccc(Cl)cc3)SC2=S)C1=O (stereo unspecified),4.39
15,CCn1cc(C(=O)O)c(=O)c2cc(F)c(N3CCN(C(=S)NC(=O)c4c(OC)cccc4OC)CC3)cc21,4.52
16,C#CCOCCOCCOCCNc1nc(N2CCN(C(=O)CCCCCCCCCCNC(=O)[C@H](CCCN=C(N)N)n3cc(C[C@@H](C)CC)nn3)CC2)nc(N2CCN(C(=O)CCCCCCCCCCNC(=O)[C@@H]([C@H](C)CC)n3cc(CCCCCN)nn3)CC2)n1,4.08
17,COc1ccc(C(C[N+](=O)[O-])n2nc(C)cc2C)cc1 (stereo unspecified),4.31
18,COC(=O)c1c(NC(=O)c2ccc([N+](=O)[O-])o2)sc2c1CCN(C(C)C)C2,4.25

# Source: PubChem BioAssay AID1863 (Southern Research Specialized Biocontainment Screening …, 2009)
